# Test results published in patent US20240400572A1, “COMPOUNDS AND METHODS FOR TREATING CANCERS THAT ARE MGMT DEFICIENT REGARDLESS OF MMR STATUS” (Yale University, priority 2021, published 2024).
# Assays:
# LN229 MGMT−/MMR− cells = assay: Short-term cell viability assay; format: cell-based, human
# Procedure: (§1) Short-term Cell Viability Assay. Cells were seeded in 96-well plates at 1000 or 2000 cells/well and allowed to adhere at 23° C. for 60 min and then incubated overnight at 37° C. Cells were treated with indicated concentrations of compounds in triplicate for 4-6 days prior to fixation with 3.7% paraformaldehyde and nuclear staining with 1 μg/mL Hoechst 33342 dye. Cells were imaged on a Cytation 3 imaging reader (BioTek) and quantified using CellProfiler software.
# Statistical analysis. Statistical analysis was performed using GraphPad Prism software. Data are presented as mean or median±SD or SEM as indicated. For in vitro short-term growth delay experiments, IC50 values were determined from the nonlinear regression equation, [inhibitor] vs normalized response with variable slope. […]
# We synthesized the imidazotetrazine 4a (KL-50) and the triazene 4b (KL-85), as vehicles to deliver 2-fluoroethyl diazonium (4c), and a series of related agents to probe structure-activity relationships in tissue culture (FIG. Z1, D and F). […] We evaluated the cytotoxicity of our compounds in short-term cell viability assays against four isogenic LN229 glioblastoma cell lines engineered to be proficient or deficient in MGMT and/or MMR activity, using short hairpin RNAs (shRNAs) targeting MSH2 (referred to as MGMT+/−, MMR+/− cells hereafter; FIG. ZS2A). […]
# [1] = tested on: genomic DNA of LN229 MGMT−/MMR+ cells; assay: Genomic DNA denaturing gel electrophoresis; format: cell-based, human; conditions: 200 μM, 24 h
# Procedure: Genomic DNA Denaturing Gel Electrophoresis. Cells were trypsinized, washed with 1×PBS, and stored at −80° C. prior to processing. Genomic DNA was extracted with the DNeasy Blood & Tissue Kit (Qiagen) per kit protocol. A 0.7% agarose gel was prepared in 100 mM NaCl-2 mM EDTA (pH 8) and soaked in 40 mM NaOH-1 mM EDTA running buffer for 2 h. Genomic DNA (400 ng/well) was then loaded in 1× BlueJuice loading buffer (Invitrogen) and subjected to electrophoresis at 2 V/cm for 30 min, followed by 3 V/cm for 2 h. The gel was neutralized in 150 mM NaCl-100 mM Tris (pH 7.4) for 30 min, twice, and then stained with 1× SYBR Gold in 150 mM NaCl-100 mM Tris (pH 7.4) for 90 min. Imaging was performed on a ChemiDoc XRS+ Molecular Imager (Bio-Rad).
# [2] = tested on: LN229 MGMT−/MMR+ and MGMT−/MMR− cells; assay: IR alkaline comet assay; format: cell-based, human
# Procedure: IR Alkaline Comet Assay. Assay was performed utilizing the CometAssay Kit (Trevigen) according to the alkaline assay protocol, with the addition of slide irradiation post-lysis. Cells were trypsinized, washed with 1×PBS, added to melted Comet LMAgarose (Trevigen), and spread on Trevigen CometSlides at a density of 1000 cells per sample in 50 μL. Lysis solution (Trevigen) with 10% DMSO was added overnight at 4° C. Slides were removed from lysis buffer and irradiated to 0 or 10 Gy using an XRAD 320 X-Ray System (Precision X-Ray) at 320 kV, 12.5 mA, and 50.0 cm SSD, with a 2 mm Al filter and 20 cm×20 cm collimator. Slides were then placed in alkaline buffer (200 mM NaOH, 1 mM EDTA) for 45 min, followed by electrophoresis in 850 mL alkaline buffer for 45 min at 4° C. Slides were washed and stained with SYBR gold (Invitrogen) per Trevigen assay protocol. Slides were imaged on a Cytation 3 imaging reader (BioTek), and comets were analyzed using CometScore 2.0 software (TriTek).
# We used a well-established comet assay adapted for ICL detection to determine if ICLs were formed in MGMT− cells treated with KL-50 (4a) (FIG. Z3, A and B). In this assay, cells were sequentially exposed to genotoxins and ionizing radiation, and then analyzed by single cell alkaline gel electrophoresis. Attenuation of the IR-induced comet tail is indicative of ICL formation.
# [3] = tested on: LN229 MGMT+/−, MMR+/− cells; assay: Clonogenic cell survival assay; conditions: cell status given in the value
# Procedure: Cells were trypsinized, washed, counted, and diluted in a medium containing various concentrations of drug. They were then immediately seeded in six-well plates in triplicate at three-fold dilutions, ranging from 9000 to 37 cells per well. Depending on colony size, these plates were kept in the incubator for 10 to 14 days. After incubation, colonies were washed in phosphate-buffered saline (PBS), stained with crystal violet, counted, and quantified.
# [4] = tested on: four isogenic LN229 glioblastoma cell lines (MGMT+/−, MMR+/−); format: cell-based; conditions: LN229 MGMT+ versus MGMT− cells; listed as 12a
# Procedure: as §1
# Statistical analysis. Statistical analysis was performed using GraphPad Prism software. Data are presented as mean or median±SD or SEM as indicated. For in vitro short-term growth delay experiments, IC50 values were determined from the nonlinear regression equation, [inhibitor] vs normalized response with variable slope. For micronuclei assays, comparisons were made with one-way ANOVA and Sidak correction for multiple comparisons. For xenograft growth delay experiments, comparisons were made with Mann-Whitney test (for comparison of 2 groups) or Kruskal-Wallis test with FDR-adjusted p-values with Q set to 5% (for comparison of ≥3 groups). For xenograft survival analysis, Kaplan-Meier analysis was used to evaluate survival rate based on death or removal from study when body weight loss exceeded 20% of initial body weight
# We synthesized the imidazotetrazine 4a (KL-50) and the triazene 4b (KL-85), as vehicles to deliver 2-fluoroethyl diazonium (4c), and a series of related agents to probe structure-activity relationships in tissue culture (FIG. Z1, D and F). The 2-fluoropropyl- and 3-fluoropropyl-triazenes (10 and 11, respectively) were prepared by diazotization of 4-aminoimdazole-5-carboxamide, followed by the addition of the respective amine. All other triazenes were prepared according to literature procedures. We evaluated the cytotoxicity of our compounds in short-term cell viability assays against four isogenic LN229 glioblastoma cell lines engineered to be proficient or deficient in MGMT and/or MMR activity, using short hairpin RNAs (shRNAs) targeting MSH2 (referred to as MGMT+/−, MMR+/− cells hereafter; FIG. ZS2A). This approach allowed us to rapidly and rigorously interrogate the relationship between MGMT and MMR status and compound activity.
# The compounds 10a through 10l and TMZ were tested in the short-term cell viability assay.
# [5] = tested on: linearized pUC19 plasmid DNA; assay: Melting temperature assay; format: biochemical; conditions: 100 or 500 μM for 3 h
# Procedure: Melting Temperature Assay. Linearized pUC19 DNA (750 ng), prepared as described above, was incubated with the indicated concentration of either MMS or KL-50 (4a) adjusted in a final volume of 18 μL in 100 mM Tris buffer (pH 7.4) for 3 h. Drug stock concentrations were made in DMSO such that each reaction contained a fixed 5% DMSO concentration. Afterwards, 1 μL each of 20× SYBR Green dye (Invitrogen) and 20× ROX reference dye (Invitrogen) was added and melting temperature analysis was run on a StepOnePlus RT PCR System (Applied Biosciences) to generate melting temperature curves.
# [6] = tested on: PD20 cells, FANCD2−/− or +FANCD2; assay: Short-term cell viability assay in FANCD2 model; format: cell-based, human; conditions: PD20 FANCD2−/− versus +FANCD2
# Procedure: (§2) FIGS. Z4A-Z4I. KL-50 (4a) activates DNA damage response pathways and cycle arrest in MGMT− cells, independent of MMR, and induces sensitivity in cells deficient in ICL or HR repair. (FIGS. Z4A, Z4B, and Z4C) Phospho-SER139-H2AX (γH2AX) (A), 53BP1 (FIG. Z4B), and phospo-SER33-RPA2 (pRPA) (FIG. Z4C) foci formation quantified by % cells with 10 foci in LN229 MGMT+/−, MMR+/− cells treated with 0.1% DMSO control, 20 μM KL-50 (4a), or 20 μM TMZ (1a) for 48 h. Columns, mean; error bars, SD; n≥5 technical replicates. Additional time course data is presented in FIG. ZS6B to D. (FIG. Z4D) Representative foci images of data in (FIG. Z4A) to (FIG. Z4C). (FIG. Z4E) Percentage of cells in G1, S, and G2 cell cycle phases after treatment as in (A) to (C), measured using integrated nuclear (Hoechst) staining intensity. Columns, mean; error bars, SD; n=3 independent analyses. (FIG. Z4F) Change in percent cells with 1 micronuclei from baseline (DMSO control) after treatment as in (FIG. Z4A) to (FIG. Z4C). Columns, mean; error bars, SD; […] technical replicates; **** p<0.0001; ns, not significant. Additional validation is presented in FIG. ZS9, A and B. (FIG. Z4G) Short-term viability assay curves for KL-50 (4a) in PD20 cells, deficient in FANCD2 (FANCD2−/−) or complemented with FANCD2 (+FANCD2). (FIG. Z4H) Short-term viability assay curves for KL-50 (4a) in PEO4 (BRCA2+) and PEO1 (BRCA2−/−) cells pre-treated with 0.01% DMSO control or 10 μM O^6BG (+O^6BG) for 1 h prior to KL-50 (4a) addition. (FIG. Z4I) Short-term viability assay curves for KL-50 (4a) in DLD1 BRCA2+/− and BRCA2−/− cells pre-treated with 0.01% DMSO control or 10 μM O^6BG (+O^6BG) for 1 h prior to KL-50 (4a) addition. For (FIG. Z4G), (FIG. Z4H), and (FIG. Z4I), points, mean; error bars, SD; n=3 technical replicates.
# Short-term Cell Viability Assay. Cells were seeded in 96-well plates at 1000 or 2000 cells/well and allowed to adhere at 23° C. for 60 min and then incubated overnight at 37° C. […] Cells were imaged on a Cytation 3 imaging reader (BioTek) and quantified using CellProfiler software.
# [7] = tested on: DLD1 BRCA2+/− and BRCA2−/− cells; assay: Short-term cell viability assay in DLD1 isogenic model; format: cell-based, human; conditions: for sensitivity of BRCA2-deficient cells (in words): DLD1 BRCA2−/− versus BRCA2+/−, ± 10 μM O^6BG; for therapeutic index (TI): ratio of IC50 values in MGMT+/BRCA2+ cells compared to MGMT−/BRCA2− cells
# Procedure: as §2, §1
# [8] = tested on: PEO4 (BRCA2+) and PEO1 (BRCA2−/−) cells; assay: Short-term cell viability assay in PEO1/4 model; format: cell-based, human; conditions: for therapeutic index (TI): PEO1/4 model, ratio of IC50 values; for sensitivity of BRCA2-deficient cells (in words): PEO1 versus PEO4, ± 10 μM O^6BG
# Procedure: as §2, §1
compound,measurement,setting,value
NC(=O)c1nc[nH]c1N=NNCCF [KL-85],IC50,LN229 MGMT−/MMR− cells,27.5 µM
same,crosslinked genomic DNA (in words),[1],presence of crosslinked DNA
same,"effect on IR-induced comet tail, ICL detection (in words)","[2]; MGMT−/MMR+ cells, 200 μM for 24 h, 10 Gy",Comparable results
O=NN(CCCl)C(=O)NC1CCCCC1 [lomustine],clonogenic survival (in words),[3],effective in MMR− cells but was cytotoxic to MGMT+ cells
"NC(=O)c1ncn2c(=O)n(CCCl)nnc12 [MTZ, mitozolomide]",selectivity for MGMT-deficient cells,[4],~7 fold
same,DNA damage in unirradiated samples (in words),"[2]; MGMT−/MMR− cells, 200 μM, 2, 8 or 24 h, 0 Gy","induced maximal damage at 2 h, which decreased over time"
same,"rate of ICL formation, DNA mobility after IR (in words)","[2]; MGMT−/MMR− cells, 200 μM, 2, 8 or 24 h, 10 Gy",reduced DNA mobility within 2 h
"COS(C)(=O)=O [MMS, Methylmethane sulfonate, reference compound]",change in DNA melting temperature (in words),[5],comparable changes in measured DNA melting temperature
N.N.[Cl][Pt][Cl] [cisplatin],sensitivity of FANCD2-deficient cells (in words),[6],hypersensitivity to crosslinking agents in FANCD2−/− cells
same,sensitivity of BRCA2-deficient cells (in words),[7],hypersensitivity of DLD1 BRCA2−/− cells to crosslinking agents independent of MGMT depletion
same,therapeutic index (TI),[7],42 fold
same,therapeutic index (TI),[8],13 fold
same,sensitivity of BRCA2-deficient cells (in words),[8],hypersensitivity of PEO4 BRCA2−/− cells to crosslinking agents independent of MGMT depletion
"CO[C@@]12[C@H](COC(N)=O)C3=C(C(=O)C(C)=C(N)C3=O)N1C[C@@H]1N[C@@H]12 [MMC, mitomycin C]",sensitivity of FANCD2-deficient cells (in words),[6],hypersensitivity to crosslinking agents in FANCD2−/− cells
same,sensitivity of BRCA2-deficient cells (in words),[7],hypersensitivity of DLD1 BRCA2−/− cells to crosslinking agents independent of MGMT depletion
same,therapeutic index (TI),[7],26 fold
same,therapeutic index (TI),[8],7 fold
same,sensitivity of BRCA2-deficient cells (in words),[8],hypersensitivity of PEO4 BRCA2−/− cells to crosslinking agents independent of MGMT depletion
same,"effect on IR-induced comet tail, ICL detection (in words)","[2]; MGMT−/MMR+ cells, 0.1 μM for 24 h, 10 Gy",partial reduction in the IR-induced comet tail
same,"effect on IR-induced comet tail, ICL detection (in words)","[2]; MGMT−/MMR+ cells, 50 μM for 2 h, 10 Gy",completely abolished the IR-induced comet tail
same,comet tailing in the absence of IR (in words),"[2]; MGMT−/MMR+ cells, TMZ and KL-50 200 μM, MMC 0.1 or 50 μM",did not
